Here are results for eleven compounds from patent publication US12157746B2, “Tetrahydro-1H-pyrazino[2,1-a]isoindolylquinoline compounds for the treatment of autoimmune disease” (F. HOFFMANN-LA ROCHE AG, priority 2018, dated 2024).

For the assay, the target named is T1, human TLR7 (Homo sapiens, UniProt Q9NYK1).
T1 sequence (Q9NYK1 27-1049): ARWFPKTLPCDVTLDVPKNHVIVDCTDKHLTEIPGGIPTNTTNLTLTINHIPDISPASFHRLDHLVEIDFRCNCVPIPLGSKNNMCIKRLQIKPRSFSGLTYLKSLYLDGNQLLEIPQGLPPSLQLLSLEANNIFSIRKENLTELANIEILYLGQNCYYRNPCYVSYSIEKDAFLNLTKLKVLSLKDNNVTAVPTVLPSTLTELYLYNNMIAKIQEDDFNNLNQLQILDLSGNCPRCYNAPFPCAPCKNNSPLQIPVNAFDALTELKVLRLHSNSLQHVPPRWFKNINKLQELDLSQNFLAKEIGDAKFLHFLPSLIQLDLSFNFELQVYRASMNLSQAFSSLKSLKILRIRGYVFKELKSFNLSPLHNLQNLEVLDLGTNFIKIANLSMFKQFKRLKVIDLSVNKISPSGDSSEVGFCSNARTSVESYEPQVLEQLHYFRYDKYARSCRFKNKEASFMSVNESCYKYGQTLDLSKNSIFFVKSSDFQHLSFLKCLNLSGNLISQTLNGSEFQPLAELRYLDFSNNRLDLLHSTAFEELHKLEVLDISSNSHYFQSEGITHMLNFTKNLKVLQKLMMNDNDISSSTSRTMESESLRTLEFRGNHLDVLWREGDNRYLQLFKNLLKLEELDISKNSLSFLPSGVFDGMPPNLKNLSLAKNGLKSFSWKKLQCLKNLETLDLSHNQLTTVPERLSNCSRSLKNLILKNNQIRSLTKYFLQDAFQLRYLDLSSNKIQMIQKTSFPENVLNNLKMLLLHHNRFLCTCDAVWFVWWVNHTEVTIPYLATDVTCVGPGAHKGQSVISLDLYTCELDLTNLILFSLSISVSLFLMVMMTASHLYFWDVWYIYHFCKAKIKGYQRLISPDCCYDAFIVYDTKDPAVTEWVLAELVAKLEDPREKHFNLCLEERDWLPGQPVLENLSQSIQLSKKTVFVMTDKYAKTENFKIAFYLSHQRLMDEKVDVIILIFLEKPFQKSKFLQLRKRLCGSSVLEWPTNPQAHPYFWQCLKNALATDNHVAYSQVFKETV
Put plainly: HEK293-Blue-hTLR-7 cells assay. Format: cell-based. The following applies: HEK293-Blue-hTLR7 cells, R848 stimulation, 20 hrs, SEAP reporter; read-out: HEK/hTLR7 IC50. A digest of the protocol:
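HEK293-Blue-hTLR7 cells (NF-κB/AP-1-driven SEAP reporter) incubated with serially diluted compound (1% DMSO final) and R848 agonist for 20 h at 37 °C. Supernatant SEAP measured with QUANTI-Blue (2 h, 37 °C) by absorbance at 620-655 nm; antagonism seen as reduced reporter.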

On to `C[C@@H]1CN(c2ccc(C#N)c3ncccc23)C[C@@H]2c3cc(F)c(N4CC5(CNC5)C4)cc3CN12` [Example 84, 5-[(4R,10bS)-8-(2,6-diazaspiro[3.3]heptan-2-yl)-9-fluoro-4-methyl-3,4,6,10b-tetrahydro-1H-pyrazino[2,1-a]isoindol-2-yl]quinoline-8-carbonitrile], for which the IC50 is 2.6 nM.

`CO[C@@H]1CNC[C@H]1Nc1cc2c(cc1C)[C@H]1CN(c3ccc(C#N)c4ncccc34)C[C@@H](C)N1C2` [Example 63, 5-[(4R,10bS)-8-[[(3R,4R)-4-methoxypyrrolidin-3-yl]amino]-4,9-dimethyl-3,4,6,10b-tetrahydro-1H-pyrazino[2,1-a]isoindol-2-yl]quinoline-8-carbonitrile]: the IC50 was determined as 7.3 nM.

Take `C[C@@H]1CN(c2ccc(C(F)(F)F)c3nccnc23)C[C@@H]2c3ccc(N[C@H]4CNC[C@H]4F)cc3CN12` [Example 77, (4R,10bS)—N-[(3S,4R)-4-fluoropyrrolidin-3-yl]-4-methyl-2-[8-(trifluoromethyl)quinoxalin-5-yl]-3,4,6,10b-tetrahydro-1H-pyrazino[2,1-a]isoindol-8-amine]: the IC50 was determined as 12.6 nM.

With `C[C@@H]1CN(c2ccc(C#N)c3ncccc23)C[C@@H]2c3cccc(NCCN4CC[C@H](O)C4)c3CN12` [Example 80, 5-[(4R,10bS)-7-[2-[(3S)-3-hydroxypyrrolidin-1-yl]ethylamino]-4-methyl-3,4,6,10b-tetrahydro-1H-pyrazino[2,1-a]isoindol-2-yl]quinoline-8-carbonitrile], the IC50 came out at 17.9 nM.

For the compound `C[C@@H]1CN(c2ccc(C#N)c3ncccc23)C[C@@H]2c3ccc(N[C@H]4CNCCOC4)cc3CN12` [Example 56B, 5-[(4R,10bS)-4-methyl-8-[[(6S)-1,4-oxazepan-6-yl]amino]-3,4,6,10b-tetrahydro-1H-pyrazino[2,1-a]isoindol-2-yl]quinoline-8-carbonitrile], the IC50 was determined as 4.5 nM.

In the case of `[2H]c1ccc2c(N3C[C@@H](C)N4Cc5cc(N6CC7(CNCCO7)C6)ccc5[C@H]4C3)ccc(C#N)c2n1` [Example 90, 5-[(4R,10bS)-4-methyl-8-(5-oxa-2,8-diazaspiro[3.5]nonan-2-yl)-3,4,6,10b-tetrahydro-1H-pyrazino[2,1-a]isoindol-2-yl]-2-deuterio-quinoline-8-carbonitrile], the IC50 stood at 2.9 nM.

Turning to `Cc1ccc(N2C[C@@H](C)N3Cc4cc(N[C@H]5CNC[C@H]5F)ccc4[C@H]3C2)c2nccnc12` [Example 76, (4R,10bS)—N-[(3S,4R)-4-fluoropyrrolidin-3-yl]-4-methyl-2-(8-methylquinoxalin-5-yl)-3,4,6,10b-tetrahydro-1H-pyrazino[2,1-a]isoindol-8-amine], the IC50 was determined as 22.8 nM.

For `CO[C@@H]1CNC[C@@H]1Nc1ccc2c(c1)CN1[C@H](C)CN(c3ccc(C#N)c4ncccc34)C[C@H]21` [Example 60, 5-[(4R,10bS)-8-[[(3S,4R)-4-methoxypyrrolidin-3-yl]amino]-4-methyl-3,4,6,10b-tetrahydro-1H-pyrazino[2,1-a]isoindol-2-yl]quinoline-8-carbonitrile], the IC50 was 3.2 nM.

For the compound `CO[C@H]1CNC[C@@H]1N(C)c1ccc2c(c1)CN1[C@H](C)CN(c3ccc(C#N)c4ncccc34)C[C@H]21` [Example 64, 5-[(4R,10bS)-8-[[(3S,4S)-4-methoxypyrrolidin-3-yl]-methyl-amino]-4-methyl-3,4,6,10b-tetrahydro-1H-pyrazino[2,1-a]isoindol-2-yl]quinoline-8-carbonitrile], the IC50 was less than 3.2 nM.

On to `C[C@@H]1CN(c2ccc(C#N)c3ncccc23)C[C@@H]2c3cccc(N[C@H]4CNC[C@H]4F)c3CN12` [Example 81, 5-[(4R,10bS)-7-[[(3S,4R)-4-fluoropyrrolidin-3-yl]amino]-4-methyl-3,4,6,10b-tetrahydro-1H-pyrazino[2,1-a]isoindol-2-yl]quinoline-8-carbonitrile], for which the IC50 was 7.4 nM.

On to `C[C@@H]1CN(c2ccc(C#N)c3ncccc23)C[C@@H]2c3ccc(N4CCNCC4)cc3CN12` [Example 1, 5-[(4R,10bS)-4-methyl-8-piperazin-1-yl-3,4,6,10b-tetrahydro-1H-pyrazino[2,1-a]isoindol-2-yl]quinoline-8-carbonitrile], for which the IC50 is less than 3.2 nM.
